Reference: US8772276B2, “Alkyne benzotriazole derivatives” (Merck Sharp & Dohme Corp., priority 2011, dated 2014)

The molecules below were run against T1, recombinant human mGluR2 (Homo sapiens, UniProt Q14416) (assay: FLIPR Ca2+ mobilization assay, mGluR2 potentiation). Conditions: CHO dhfr- cells expressing human mGluR2 and Gα16, EC20 concentration of glutamate (900 nM).
T1 construct: expressed in transfected cells
T1 sequence (Q14416 19-872): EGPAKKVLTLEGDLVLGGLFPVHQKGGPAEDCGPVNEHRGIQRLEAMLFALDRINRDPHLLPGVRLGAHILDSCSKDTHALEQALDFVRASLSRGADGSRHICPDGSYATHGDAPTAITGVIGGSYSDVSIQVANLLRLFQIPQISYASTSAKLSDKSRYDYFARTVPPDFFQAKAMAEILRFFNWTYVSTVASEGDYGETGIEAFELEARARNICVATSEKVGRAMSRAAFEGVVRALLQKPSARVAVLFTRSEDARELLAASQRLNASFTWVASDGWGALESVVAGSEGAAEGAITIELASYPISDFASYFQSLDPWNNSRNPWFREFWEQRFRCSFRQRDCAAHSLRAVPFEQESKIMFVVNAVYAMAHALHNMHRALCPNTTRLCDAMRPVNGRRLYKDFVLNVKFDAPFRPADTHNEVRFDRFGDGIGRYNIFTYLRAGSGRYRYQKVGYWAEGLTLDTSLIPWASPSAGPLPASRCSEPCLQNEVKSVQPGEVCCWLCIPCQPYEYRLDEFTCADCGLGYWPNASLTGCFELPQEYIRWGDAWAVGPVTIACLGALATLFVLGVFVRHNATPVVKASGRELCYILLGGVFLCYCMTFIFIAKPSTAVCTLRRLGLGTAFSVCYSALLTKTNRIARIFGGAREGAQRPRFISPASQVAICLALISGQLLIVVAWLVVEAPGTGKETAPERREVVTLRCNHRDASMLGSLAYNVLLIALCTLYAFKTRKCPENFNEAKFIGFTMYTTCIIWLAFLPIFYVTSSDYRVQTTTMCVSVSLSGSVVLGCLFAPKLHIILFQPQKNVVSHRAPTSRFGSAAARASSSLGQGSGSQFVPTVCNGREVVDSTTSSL
Assay type: cell-based
Description: Potencies are determined as follows. The compounds of the present invention may be tested in a fluorescence laser imaging plate reader (FLIPR) based assay. This assay is a common functional assay to monitor Ca^2+ mobilization in whole cells expressing recombinant receptor coupled with a promiscuous G-protein. CHO dhfr-cells stably expressing recombinant human mGluR2 and Gα16 loaded with Fluo-4 AM (Invitrogen, Carlsbad Calif.) are treated with varying concentrations of compounds and the Ca^2+ response is monitored on a FLIPR384 (Molecular Devices, Sunnydale Calif.) for agonist activity. The potentiation response is monitored after a subsequent addition of an EC20 concentration of glutamate (900 nM). The maximum calcium response at each concentration of compound for agonism or potentiation are plotted as dose responses curves fitted with a four parameters logistic equation giving EC50 and Hill coefficient using the iterative non linear curve fitting software program.
Work on `Cc1ncccc1C#Cc1ccc2c(nnn2CC2CC2)c1Cl` [Example 16, 4-chloro-1-(cyclopropylmethyl)-5-[(2-methylpyridin-3-yl)ethynyl]-1H-benzotriazole] yielded an EC50 of 50 nM. `Fc1cc(C#Cc2ccc3c(nnn3CC3CC3)c2Cl)ccn1` [Example 25, 4-chloro-1-(cyclopropylmethyl)-5-[(2-fluoropyridin-4-yl)ethynyl]-1H-benzotriazole] gave an EC50 of 77 nM. For `CC(C)(C)Cn1nnc2c(Br)c(C#CC3CCN(CC(F)(F)F)CC3)ccc21` [Example 5, 4-bromo-1-(2,2-dimethylpropyl)-5-{[1-(2,2,2-trifluoroethyl)piperidin-4-yl]ethynyl}-1H-benzotriazole], the EC50 was 123 nM. `C=CC#Cc1ccc2c(nnn2CC2CC2)c1Cl` [Example 31, 5-but-3-en-1-yn-1-yl-4-chloro-1-(cyclopropylmethyl)-1H-benzotriazole] gave an EC50 of 282 nM. `Clc1cncc(C#Cc2ccc3c(nnn3CC3CC3)c2Cl)c1` [Example 19, 4-chloro-5-[(5-chloropyridin-3-yl)ethynyl]-1-(cyclopropylmethyl)-1H-benzotriazole] showed an EC50 of 292 nM. `FC1(C#Cc2ccc3c(nnn3CC3CC3)c2Br)CCNCC1` [Example 4, 4-bromo-1-(cyclopropylmethyl)-5-[(4-fluoropiperidin-4-yl)ethynyl]-1H-benzotriazole] showed an EC50 of 1220 nM. In the case of `FC(F)(F)c1c(C#Cc2ccncc2)ccc2c1nnn2CC1CC1` [Example 35, 1-(cyclopropylmethyl)-5-(pyridin-4-ylethynyl)-4-(trifluoromethyl)-1H-benzotriazole], the EC50 is reported as 12 nM. `OCc1cncc(C#Cc2ccc3c(nnn3CC3CC3)c2Cl)c1` [Example 22, (5-{[4-chloro-1-(cyclopropylmethyl)-1H-benzotriazol-5-yl]ethynyl}pyridin-3-yl)methanol] was tested, and the EC50 was 57 nM. `Clc1cc(C#Cc2ccc3c(nnn3CC3CC3)c2Cl)ccn1` [Example 26, 4-chloro-5-[(2-chloropyridin-4-yl)ethynyl]-1-(cyclopropylmethyl)-1H-benzotriazole] gave an EC50 of 299 nM. For `FC(F)(F)c1c(C#Cc2ccccc2)ccc2c1nnn2CC1CC1` [Example 34, 1-(cyclopropylmethyl)-5-(phenylethynyl)-4-(trifluoromethyl)-1H-benzotriazole], the EC50 was 34 nM. `Clc1c(C#Cc2ccccn2)ccc2c1nnn2CC1CC1` [Example 9, 4-chloro-1-(cyclopropylmethyl)-5-(pyridin-2-ylethynyl)-1H-benzotriazole] was tested, and the EC50 was 85 nM. In the case of `Nc1cncc(C#Cc2ccc3c(nnn3CC3CC3)c2Cl)c1` [Example 23, 5-{[4-chloro-1-(cyclopropylmethyl)-1H-benzotriazol-5-yl]ethynyl}pyridin-3-amine], the EC50 is reported as 98 nM. `CC(C)(C)Cn1nnc2c(Br)c(C#CC3CCNCC3)ccc21` [Example 2, 4-bromo-1-(2,2-dimethylpropyl)-5-(piperidin-4-ylethynyl)-1H-benzotriazole] was tested, and the EC50 was 2710 nM. In the case of `CN1C(=O)CN(CC#Cc2ccc3c(nnn3CC3CC3)c2Cl)C1=O` [Example 30, 1-{3-[4-Chloro-1-(cyclopropylmethyl)-1H-benzotriazol-5-yl]prop-2-yn-1-yl}-3-methylimidazolidine-2,4-dione], the EC50 is reported as 415 nM. `COc1cncc(C#Cc2ccc3c(nnn3CC3CC3)c2Cl)c1` [Example 20, 4-chloro-1-(cyclopropylmethyl)-5-[(5-methoxypyridin-3-yl)ethynyl]-1H-benzotriazole] was tested, and the EC50 was 50 nM. `Cc1cc(C#Cc2ccc3c(nnn3CC3CC3)c2Cl)ccn1` [Example 27, 4-chloro-1-(cyclopropylmethyl)-5-[(2-methylpyridin-4-yl)ethynyl]-1H-benzotriazole] showed an EC50 of 43 nM. Molecule `FC(F)(F)c1c(C#Cc2cccnc2)ccc2c1nnn2CC1CC1` [Example 33, 1-(Cyclopropylmethyl)-5-(pyridin-3-ylethynyl)-4-(trifluoromethyl)-1H-benzotriazole] has an EC50 of 4.8 nM. For `NC(=O)c1cncc(C#Cc2ccc3c(nnn3CC3CC3)c2Cl)c1` [Example 24, 5-{[4-chloro-1-(cyclopropylmethyl)-1H-benzotriazol-5-yl]ethynyl}pyridine-3-carboxamide], the EC50 was 42 nM. `COc1cc(C#Cc2ccc3c(nnn3CC3CC3)c2Cl)ccn1` [Example 28, 4-chloro-1-(cyclopropylmethyl)-5-[(2-methoxypyridin-4-yl)ethynyl]-1H-benzotriazole] gave an EC50 of 227 nM. `O=Cc1cncc(C#Cc2ccc3c(nnn3CC3CC3)c2Cl)c1` [Example 15, 5-{[4-chloro-1-(cyclopropylmethyl)-1H-benzotriazol-5-yl]ethynyl}pyridine-3-carbaldehyde] gave an EC50 of 56 nM. Molecule `OCCCC#Cc1ccc2c(nnn2CC2CC2)c1Cl` [Example 14, 5-[4-chloro-1-(cyclopropylmethyl)-1H-benzotriazol-5-yl]pent-4-yn-1-ol] has an EC50 of 180 nM. In the case of `Clc1c(C#Cc2ccncc2)ccc2c1nnn2CC1CC1` [Example 8, 4-chloro-1-(cyclopropylmethyl)-5-(pyridin-4-ylethynyl)-1H-benzotriazole], the EC50 is reported as 64 nM. `CC(C)(C)OC(=O)N1CCC(F)(C#Cc2ccc3c(nnn3CC3CC3)c2Br)CC1` [Example 3] was tested, and the EC50 was 414 nM. With `Cc1ccc(C#Cc2ccc3c(nnn3CC3CC3)c2Cl)cn1` [Example 17, 4-chloro-1-(cyclopropylmethyl)-5-[(6-methylpyridin-3-yl)ethynyl]-1H-benzotriazole] the EC50 was 140 nM. Work on `Nc1cc(C#Cc2ccc3c(nnn3CC3CC3)c2Cl)ccn1` [Example 29, 4-{[4-chloro-1-(cyclopropylmethyl)-1H-benzotriazol-5-yl]ethynyl}pyridin-2-amine] yielded an EC50 of 31 nM. Molecule `Clc1c(C#Cc2cccnc2)ccc2c1nnn2CC1CC1` [Example 7, 4-chloro-1-(cyclopropylmethyl)-5-(pyridin-3-ylethynyl)-1H-benzotriazole] has an EC50 of 34 nM. `Fc1cncc(C#Cc2ccc3c(nnn3CC3CC3)c2Cl)c1` [Example 21, 4-chloro-1-(cyclopropylmethyl)-5-[(5-fluoropyridin-3-yl)ethynyl]-1H-benzotriazole] showed an EC50 of 76 nM. `Clc1c(C#Cc2ccnnc2)ccc2c1nnn2CC1CC1` [Example 11, 4-chloro-1-(cyclopropylmethyl)-5-(pyridazin-4-ylethynyl)-1H-benzotriazole] was tested, and the EC50 was 203 nM. `CN1C(=O)CN(CCCC#Cc2ccc3c(nnn3CC3CC3)c2Cl)C1=O` [Example 32, 1-{5-[4-chloro-1-(cyclopropylmethyl)-1H-benzotriazol-5-yl]pent-4-yn-1-yl}-3-methylimidazolidine-2,4-dione] was tested, and the EC50 was 153 nM. `Cc1cncc(C#Cc2ccc3c(nnn3CC3CC3)c2Cl)c1` [Example 18, 4-chloro-1-(cyclopropylmethyl)-5-[(5-methylpyridin-3-yl)ethynyl]-1H-benzotriazole] showed an EC50 of 57 nM. `Clc1c(C#Cc2cnccn2)ccc2c1nnn2CC1CC1` [Example 10, 4-chloro-1-(cyclopropylmethyl)-5-(pyrazin-2-ylethynyl)-1H-benzotriazole] gave an EC50 of 80 nM. For `OCCC#Cc1ccc2c(nnn2CC2CC2)c1Cl` [Example 12, 4-[4-chloro-1-(cyclopropylmethyl)-1H-benzotriazol-5-yl]but-3-yn-1-ol], the EC50 was 388 nM. `OCC#Cc1ccc2c(nnn2CC2CC2)c1Cl` [Example 13, 3-[4-chloro-1-(cyclopropylmethyl)-1H-benzotriazol-5-yl]prop-2-yn-1-ol] gave an EC50 of 576 nM. With `Cc1ccncc1C#Cc1ccc2c(nnn2CC2CC2)c1Cl` [Example 6, 4-Chloro-1-(cyclopropylmethyl)-5-[(4-methylpyridin-3-yl)ethynyl]-1H-benzotriazole] the EC50 was 50 nM. Molecule `CC(C)(C)Cn1nnc2c(Br)c(C#CC3CCN(C(=O)OC(C)(C)C)CC3)ccc21` [Example 1, tert-Butyl 4-{[4-bromo-1-(2,2-dimethylpropyl)-1H-benzotriazol-5-yl]ethynyl}piperidine-1-carboxylate] has an EC50 of 100 nM.
